# Source: patent US12145913B2, “Inhibition of Olig2 activity” (Curtana Pharmaceuticals, Inc., priority 2016, dated 2024)
# Test system: GBM8 human glioblastoma cells
# Test: GBM8 viability assay (Cell Titer Glo)
# Format: cell-based
# Conditions: 72 h, Table 1, 3 days incubation, luminescence
# Method: Cell culture medium was prepared from a NSA proliferation kit (Neurocult) and NeuroCult supplements (Stemcell Tech Cat. #05751) and treated with 20 μL of 10 μg/mL rh EGF, 10 μL of 10 μg/mL rh bFGF and 10 μL of 0.2% Heparin. In this medium, human glioblastoma cells were cultured in ultra-low attachment tissue culture flasks until 1×10^6 cells ml was achieved (GBM4 and GBM8 are distinct neurosphere cell cultures derived from these human patient tissues). GBM4 and GBM8 cells were dissociated and 10 mL of media containing 4000 human glioblastoma cells per 90 μL were transferred to an ultra-low binding 96-well plate and incubated at 37° C. overnight. On the following day, 10 μL of a 1% DMSO solution of test compound in assay medium was added to wells containing the cell suspension and the mixture incubated at 37° C. for 3 days. At this time, the plate was removed from the incubator and allowed to reach room temperature. After about 30 minutes, 50 μL of Cell Titer Glo solution was added to each well and the plate shaken for 1 minute at low speed. After 10 minutes luminescence was recorded using a Tecan Safire2 reader.
# Reduction in luminescence compared to DMSO only control wells was used to determine the percentage inhibition of cell growth. IC50s were calculated using the % inhibition of luminescence for serial dilutions of compounds fitted to a 4-parameter fit within the Prism (San Diego) curve fitting program. Tables 1 (compounds 3-188) and 2 (compounds 190-212) show the GBM4 IC50 and GBM8 IC50 for compounds described herein.
row,Compound,IC50 [µM]
1,CCCCNc1cc(C)nc(NC(=O)Nc2ccc3cnccc3c2)n1 [Compound 56],< 0.5
2,COCCNc1cc(C)nc(NC(=O)Nc2ccc3cnccc3c2)n1 [Compound 57],< 0.5
3,CNC(=O)CNc1cc(C)nc(NC(=O)Nc2ccc3cnccc3c2)n1 [Compound 58],< 0.5
4,Cc1cc(NCC(=O)N(C)C)nc(NC(=O)Nc2ccc3cnccc3c2)n1 [Compound 59],0.5 to 5
5,"Cc1cc(NCCO)nc(NC(=O)Nc2ccc3cnccc3c2)n1 [Compound 60, 1-(4-((2-hydroxyethyl)amino)-6-methylpyrimidin-2-yl)-3-(isoquinolin-6-yl)urea]",< 0.5
6,"CONc1cc(C)nc(NC(=O)Nc2ccc3cnccc3c2)n1 [Compound 61, 1-(isoquinolin-6-yl)-3-(4-(methoxyamino)-6-methylpyrimidin-2-yl)urea]",< 0.5
7,"Cc1cc(NO)nc(NC(=O)Nc2ccc3cnccc3c2)n1 [Compound 62, 1-(4-(hydroxyamino)-6-methylpyrimidin-2-yl)-3-(isoquinolin-6-yl)urea]",< 0.5
8,"CNCCCNc1cc(C)nc(NC(=O)Nc2ccc3cnccc3c2)n1 [Compound 64, 1-(isoquinolin-6-yl)-3-(4-methyl-6-((3-(methylamino)propyl)amino)pyrimidin-2-yl)urea]",< 0.5
9,"CNCCCCNc1cc(C)nc(NC(=O)Nc2ccc3cnccc3c2)n1 [Compound 65, 1-(isoquinolin-6-yl)-3-(4-methyl-6-((4-(methylamino)butyl)amino)pyrimidin-2-yl)urea]",< 0.5
10,"CC(=O)NCCCNc1cc(C)nc(NC(=O)Nc2ccc3cnccc3c2)n1 [Compound 66, N-(3-((2-(3-(isoquinolin-6-yl)ureido)-6-methylpyrimidin-4-yl)amino)propyl)acetamide]",< 0.5
11,"CC(=O)NCCNc1cc(C)nc(NC(=O)Nc2ccc3cnccc3c2)n1 [Compound 67, N-(2-((2-(3-(isoquinolin-6-yl)ureido)-6-methylpyrimidin-4-yl)amino)ethyl)acetamide]",< 0.5
12,"Cc1cc(NCCCNS(C)(=O)=O)nc(NC(=O)Nc2ccc3cnccc3c2)n1 [Compound 71, N-(3-((2-(3-(isoquinolin-6-yl)ureido)-6-methylpyrimidin-4-yl)amino)propyl)methanesulfonamide]",< 0.5
13,"Cc1cc(NCCNS(C)(=O)=O)nc(NC(=O)Nc2ccc3cnccc3c2)n1 [Compound 75, N-(2-((2-(3-(isoquinolin-6-yl)ureido)-6-methylpyrimidin-4-yl)amino)ethyl)methanesulfonamide]",< 0.5
14,"Cc1cc(NCCC(=O)N(C)C)nc(NC(=O)Nc2ccc3cnccc3c2)n1 [Compound 76, 3-((2-(3-(isoquinolin-6-yl)ureido)-6-methylpyrimidin-4-yl)amino)-N,N-dimethylpropanamide]",0.5 to 5
15,"CNC(=O)CCNc1cc(C)nc(NC(=O)Nc2ccc3cnccc3c2)n1 [Compound 77, 3-((2-(3-(isoquinolin-6-yl)ureido)-6-methylpyrimidin-4-yl)amino)-N-methylpropanamide]",< 0.5
16,"Cc1cc(NCCCN(C)C)nc(NC(=O)Nc2ccc3occc3c2)n1 [Compound 80, 1-(benzofuran-5-yl)-3-(4-((3-(dimethylamino)propyl)amino)-6-methylpyrimidin-2-yl)urea]",< 0.5
17,"Cc1cc(NCCN(C)C)nc(NC(=O)Nc2ccc3occc3c2)n1 [Compound 81, 1-(benzofuran-5-yl)-3-(4-((2-(dimethylamino)ethyl)amino)-6-methylpyrimidin-2-yl)urea]",< 0.5
18,"Cc1cc(NCCN)nc(NC(=O)Nc2ccc3occc3c2)n1 [Compound 82, 1-(4-((2-aminoethyl)amino)-6-methylpyrimidin-2-yl)-3-(benzofuran-5-yl)urea]",< 0.5
19,"Cc1cc(NCCCN)nc(NC(=O)Nc2ccc3occc3c2)n1 [Compound 83, 1-(4-((3-aminopropyl)amino)-6-methylpyrimidin-2-yl)-3-(benzofuran-5-yl)urea]",< 0.5
20,"CC(=O)NCCNc1cc(C)nc(NC(=O)Nc2ccc3occc3c2)n1 [Compound 84, N-(2-((2-(3-(benzofuran-5-yl)ureido)-6-methylpyrimidin-4-yl)amino)ethyl)acetamide]",< 0.5
21,"CC(=O)NCCCNc1cc(C)nc(NC(=O)Nc2ccc3occc3c2)n1 [Compound 85, N-(3-((2-(3-(benzofuran-5-yl)ureido)-6-methylpyrimidin-4-yl)amino)propyl)acetamide]",< 0.5

row,Compound,IC50 [µM]
1,"Cc1cc(NCCNS(C)(=O)=O)nc(NC(=O)Nc2ccc3occc3c2)n1 [Compound 86, N-(2-((2-(3-(benzofuran-5-yl)ureido)-6-methylpyrimidin-4-yl)amino)ethyl)methanesulfonamide]",< 0.5
2,"Cc1cc(NCCCN(C)C)nc(NC(=O)Nc2cc3ccccc3cn2)n1 [Compound 89, 1-(4-((3-(dimethylamino)propyl)amino)-6-methylpyrimidin-2-yl)-3-(isoquinolin-3-yl)urea]",5 to 30
3,"Cc1cc(NCCN)nc(NC(=O)Nc2cc3ccccc3cn2)n1 [Compound 90, 1-(4-((2-aminoethyl)amino)-6-methylpyrimidin-2-yl)-3-(isoquinolin-3-yl)urea]",0.5 to 5
4,"Cc1cc(NCCCN)nc(NC(=O)Nc2cc3ccccc3cn2)n1 [Compound 91, 1-(4-((3-aminopropyl)amino)-6-methylpyrimidin-2-yl)-3-(isoquinolin-3-yl)urea]",0.5 to 5
5,"CC(=O)NCCCNc1cc(C)nc(NC(=O)Nc2cc3ccccc3cn2)n1 [Compound 92, N-(3-((2-(3-(isoquinolin-3-yl)ureido)-6-methylpyrimidin-4-yl)amino)propyl)acetamide]",0.5 to 5
6,"Cc1cc(NCCNS(C)(=O)=O)nc(NC(=O)Nc2cc3ccccc3cn2)n1 [Compound 93, N-(2-((2-(3-(isoquinolin-3-yl)ureido)-6-methylpyrimidin-4-yl)amino)ethyl)methanesulfonamide]",0.5 to 5
7,"Cc1cc(NCCCN(C)C)nc(NC(=O)Nc2ccc3ccccc3n2)n1 [Compound 96, 1-(4-((3-(dimethylamino)propyl)amino)-6-methylpyrimidin-2-yl)-3-(quinolin-2-yl)urea]",0.5 to 5
8,"Cc1cc(NCCN(C)C)nc(NC(=O)Nc2ccc3ccccc3n2)n1 [Compound 97, 1-(4-((2-(dimethylamino)ethyl)amino)-6-methylpyrimidin-2-yl)-3-(quinolin-2-yl)urea]",5 to 30
9,"Cc1cc(NCCN)nc(NC(=O)Nc2ccc3ccccc3n2)n1 [Compound 98, 1-(4-((2-aminoethyl)amino)-6-methylpyrimidin-2-yl)-3-(quinolin-2-yl)urea]",0.5 to 5
10,"Cc1cc(NCCCN)nc(NC(=O)Nc2ccc3ccccc3n2)n1 [Compound 99, 1-(4-((3-aminopropyl)amino)-6-methylpyrimidin-2-yl)-3-(quinolin-2-yl)urea]",0.5 to 5
11,"CC(=O)NCCCNc1cc(C)nc(NC(=O)Nc2ccc3ccccc3n2)n1 [Compound 100, N-(3-((6-methyl-2-(3-(quinolin-2-yl)ureido)pyrimidin-4-yl)amino)propyl)acetamide]",0.5 to 5
12,"CC(=O)NCCNc1cc(C)nc(NC(=O)Nc2ccc3ccccc3n2)n1 [Compound 101, N-(2-((6-methyl-2-(3-(quinolin-2-yl)ureido)pyrimidin-4-yl)amino)ethyl)acetamide]",0.5 to 5
13,"Cc1cc(NCCNS(C)(=O)=O)nc(NC(=O)Nc2ccc3ccccc3n2)n1 [Compound 102, N-(2-((6-methyl-2-(3-(quinolin-2-yl)ureido)pyrimidin-4-yl)amino)ethyl)methanesulfonamide]",0.5 to 5
14,"Cc1cc(NCCCN(C)C)nc(NC(=O)Nc2ccc3ncccc3c2)n1 [Compound 105, 1-(4-((3-(dimethylamino)propyl)amino)-6-methylpyrimidin-2-yl)-3-(quinolin-6-yl)urea]",0.5 to 5
15,"Cc1cc(NCCN(C)C)nc(NC(=O)Nc2ccc3ncccc3c2)n1 [Compound 106, 1-(4-((2-(dimethylamino)ethyl)amino)-6-methylpyrimidin-2-yl)-3-(quinolin-6-yl)urea]",0.5 to 5
16,"Cc1cc(NCCN)nc(NC(=O)Nc2ccc3ncccc3c2)n1 [Compound 107, 1-(4-((2-aminoethyl)amino)-6-methylpyrimidin-2-yl)-3-(quinolin-6-yl)urea]",0.5 to 5
17,"Cc1cc(NCCCN)nc(NC(=O)Nc2ccc3ncccc3c2)n1 [Compound 108, 1-(4-((3-aminopropyl)amino)-6-methylpyrimidin-2-yl)-3-(quinolin-6-yl)urea]",0.5 to 5
18,"CC(=O)NCCCNc1cc(C)nc(NC(=O)Nc2ccc3ncccc3c2)n1 [Compound 109, N-(3-((6-methyl-2-(3-(quinolin-6-yl)ureido)pyrimidin-4-yl)amino)propyl)acetamide]",0.5 to 5
19,"CC(=O)NCCNc1cc(C)nc(NC(=O)Nc2ccc3ncccc3c2)n1 [Compound 110, N-(2-((6-methyl-2-(3-(quinolin-6-yl)ureido)pyrimidin-4-yl)amino)ethyl)acetamide]",0.5 to 5
20,"Cc1cc(NCCNS(C)(=O)=O)nc(NC(=O)Nc2ccc3ncccc3c2)n1 [Compound 111, N-(2-((6-methyl-2-(3-(quinolin-6-yl)ureido)pyrimidin-4-yl)amino)ethyl)methanesulfonamide]",< 0.5
